The values that follow are results of earlier work, collected in US8048872B2, “Treatment of hyperproliferative diseases with vinca alkaloid N-oxide and analogs” (Stat of Oregon Acting by and Through The Oregon State Board …, priority 2006, dated 2011).

Where two headings read alike, the source gives them in different places.

The conditions of the data set: cited from earlier work; for patients developing pneumonia: refractory chronic lymphocytic leukemia.
[1] abbreviates: non-Hodgkin's lymphoma, 9 mcg/kg/d IV days 1-5, every 21 days.
The mark [2] stands for this setting: non-Hodgkin's lymphoma, 9 or 18 mcg/kg/d IV days 1-5, every 21 days, Grade III-IV.
Where [3] appears, read: non-Hodgkin's lymphoma, 18 mcg/kg/d IV days 1-5, every 21 days.

In the case of `Nc1nc(F)nc2c1ncn2[C@@H]1O[C@H](COP(=O)(O)O)[C@@H](O)[C@@H]1O` [fludarabine phosphate, reference compound], the patients developing pneumonia runs as follows: (15-25 mg/m^2 daily for five days every 28 days) 22%; (22-40 mg/m^2 daily for five days every 28 days) 16%.

On to `Nc1ccn([C@@H]2O[C@H](CO)[C@@H](O)C2(F)F)c(=O)n1` [gemcitabine, reference compound], for which, for the setting “human, in vivo, iv”, the Constipation result is “Constipation 3%”, the “Deep Vein Thrombosis” value is recorded as 3%, the Diarrhea entry is “Diarrhea 2%” and the Edema entry is “Edema 5%”. Moreover, where the note is “human, in vivo, iv”, the Fever entry was “Fever 3%”, the “Increased Bilirubin” value was “Increased Bilirubin 41%”, the “Neutropenic Fever” value is listed as “Neutropenic Fever 3%” and the Pain result was “Pain 2%”. Also, for the setting “human, in vivo, iv”, the Respiratory result is reported as “Respiratory 5%”, the “State of Consciousness” value is listed as “Consciousness 2%” and the “patients with grade III-IV respiratory toxicity” value was 2 out of 40. Further, under “human, in vivo”, the “Anemia Grade III” value is given as “Anemia Grade III 14.3%”, the Hepatotoxicity result is “(Grade III) 14.3%”, the Infection result is listed as “(Grade III) 3.6%” and the Leukopenia is recorded as 10.7%. Also, where the note is “human, in vivo”, the “Leukopenia/Neutropenia Toxicity” value is “Grade III 19%” and the “Skin Rash” value is on record as “(Grade III) 3.6%”.

Alemtuzumab: where the note is “Grade III-IV”, the “Anemia Grade III-IV” value was 38%, the Bronchitis/Pneumonitis was 13%, the Dyspnea entry is on record as “Dyspnea 9%” and the Fatigue result is “Fatigue 5%”. Moreover, for the setting “Grade III-IV”, the Fever result is “Fever 19%”, the Hypotension result is on record as “Hypotension 5%”, the Neutropenia is 64% and the Pneumonia entry is reported as “Pneumonia 10%”. Moreover, for the setting “Grade III-IV”, the Rigors entry is “Rigors 16%”, the Sepsis entry is listed as “Sepsis 10%”, the Thrombocytopenia result is on record as “Thrombocytopenia 50%” and the Urticaria result is listed as “Urticaria 5%”.

As to Arsenic trioxide, for the setting “Grade III-IV”, the “Anemia Grade III-IV” value was “Anemia Grade III-IV 5%”, the Arthralgia/Myalgia result was “Arthralgia/Mylagia 13%”, the Convulsions result is “Convulsions 5%” and the “Disseminated Intravascular Coagulation” value is recorded as 8%. In addition, for the setting “Grade III-IV”, the Dyspnea result is recorded as “Dyspnea 10%”, the “Febrile Neutropenia” value is “Febrile Neutropenia 8%”, the Fever entry is “Fever 5%” and the Hyperglycemia result is reported as “Hyperglycemia 13%”. Moreover, where the note is “Grade III-IV”, the Hypokalemia entry is reported as “Hypokalemia 13%”, the Hypomagnesemia entry was “Hypomagnesemia 13%”, the Hypoxia entry was “Hypoxia 10%” and the Leukocytosis entry is on record as “Leukocytosis 3%”. Further, under “Grade III-IV”, the Neutropenia is on record as 10%, the Paresthesias entry is “Paresthesias 5%”, the Sepsis entry is listed as “Sepsis 5%” and the Thrombocytopenia entry is recorded as “Thrombocytopenia 12%”.

Consider Denileukin diftitox, for which, under setting [1], the Leukopenia entry is reported as “Leukopenia 6%” and the Neutropenia entry is given as “Neutropenia 3%”. Moreover, under setting [2], the “Constitutional Symptoms” value is “Symptoms 37-47%”, the Gastrointestinal entry is “Gastrointestinal 20-36%”, the Infection result is listed as “Infection 33-43%” and the “Infusion-Related Events: Back Pain” value is “Back Pain 6-11%”. Under setting [2], the “Infusion-Related Events: Chest Pain/Tightness” value was “Tightness 9%”, the “Infusion-Related Events: Dyspnea” value was “Dyspnea 6-11%”, the “Infusion-Related Events: Hypotension” value is “Hypotension 8-11%” and the “Infusion-Related Events: Pruritis” value is given as “Pruritis 6%”. In addition, under setting [2], the “Infusion-Related Events: Vasodilation” value is on record as “Vasodilation 3%”, the Rash entry is listed as “Rash 19-23%”, the “Right Heart Failure” value is reported as “Right Heart Failure 3-6%” and the “Thrombotic Events” value is “Thrombotic Events 3-8%”. The “Vascular Leak Syndrome” value under setting [2] is reported as “Syndrome 17-25%”. Further, under setting [3], the Leukopenia result was “Leukopenia 3%” and the Neutropenia result was “Neutropenia 3%”.
